Reference: US10336775B2 (Asceneuron SA, priority 2014, dated 2019)

What follows are molecules tested against His-Tagged hOGA (human O-GlcNAcase) (Homo sapiens (Human), UniProt O60502) (assay: Human O-GlcNAcase enzyme inhibition assay (Example B01)). Settings: OGA IC50 (M), OGA enzyme inhibition assay; activity range classes defined in μM.
Format: biochemical

Chain of His-Tagged hOGA (human O-GlcNAcase) (O60502 whole entry): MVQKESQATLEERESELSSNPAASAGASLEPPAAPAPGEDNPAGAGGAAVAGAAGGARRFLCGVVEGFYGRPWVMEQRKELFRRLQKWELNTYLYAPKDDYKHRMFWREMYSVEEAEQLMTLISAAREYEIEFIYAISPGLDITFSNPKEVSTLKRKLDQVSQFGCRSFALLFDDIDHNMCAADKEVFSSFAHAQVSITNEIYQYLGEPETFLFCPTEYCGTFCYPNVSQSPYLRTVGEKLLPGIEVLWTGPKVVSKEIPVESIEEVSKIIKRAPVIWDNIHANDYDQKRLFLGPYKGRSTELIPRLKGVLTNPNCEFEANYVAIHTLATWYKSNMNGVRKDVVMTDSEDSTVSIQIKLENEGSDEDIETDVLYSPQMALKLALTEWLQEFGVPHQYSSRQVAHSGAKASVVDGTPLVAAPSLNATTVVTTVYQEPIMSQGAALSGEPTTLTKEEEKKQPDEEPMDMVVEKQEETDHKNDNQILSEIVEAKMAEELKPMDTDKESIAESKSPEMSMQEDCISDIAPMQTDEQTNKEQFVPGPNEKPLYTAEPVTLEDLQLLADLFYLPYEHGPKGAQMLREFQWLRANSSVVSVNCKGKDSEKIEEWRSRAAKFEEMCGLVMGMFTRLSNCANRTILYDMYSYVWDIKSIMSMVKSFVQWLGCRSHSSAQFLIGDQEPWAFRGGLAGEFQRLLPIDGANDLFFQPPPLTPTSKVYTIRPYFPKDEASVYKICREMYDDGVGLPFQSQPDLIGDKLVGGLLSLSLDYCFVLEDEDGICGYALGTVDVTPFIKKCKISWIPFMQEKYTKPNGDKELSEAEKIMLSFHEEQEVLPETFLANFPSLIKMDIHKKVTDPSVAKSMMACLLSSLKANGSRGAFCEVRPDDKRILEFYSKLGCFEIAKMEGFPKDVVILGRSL

Structure (SMILES) | IC50
CC(c1ccc2c(c1)OCO2)N1CCN(c2ncc(C(=O)N(C)C)s2)CC1 (racemic) [Example 47, 2-(4-(1-(Benzo[d](1,3)dioxol-5-yl)ethyl)piperazin-1-yl)-N,N-dimethylthiazole-5-carboxamide] | 5e-08 to 2e-07 M

Same assay, conditions: OGA enzyme inhibition assay; activity range classes defined in μM; read-out: OGA IC50

Structure (SMILES) | IC50
Cc1cnn(C2CCN(C(C)c3ccc4c(c3)OCO4)CC2)c1 (racemic) [Example 3, 1-(1-(benzo[d][1,3]dioxol-5-yl)ethyl)-4-(4-methyl-1H-pyrazol-1-yl)piperidine] | 1e-06 to 1e-05 M
Cc1noc(C2CCN(C(C)c3ccc4c(c3)OCO4)CC2)n1 (racemic) [Example 4, 5-(1-(1-(Benzo[d][1,3]dioxol-5-yl)ethyl)piperidin-4-yl)-3-methyl-1,2,4-oxadiazole] | 2e-07 to 1e-06 M
CC(c1ccc2c(c1)OCO2)N1CCN(c2nc(-c3ccccc3)cs2)CC1 (racemic) [Example 5, 2-(4-(1-(Benzo[d][1,3]dioxol-5-yl)ethyl)piperazin-1-yl)-4-phenylthiazole] | 2e-07 to 1e-06 M
COc1ccc(-c2csc(N3CCN(C(C)c4ccc5c(c4)OCO5)CC3)n2)cc1 (racemic) [Example 6, 2-(4-(1-(Benzo[d][1,3]dioxol-5-yl)ethyl)piperazin-1-yl)-4-(4-methoxyphenyl)thiazole] | 1e-06 to 1e-05 M
CC(c1ccc2c(c1)OCO2)N1CCN(c2nccs2)CC1 (racemic) [Example 7, 2-(4-(1-(Benzo[d][1,3]dioxol-5-yl)ethyl)piperazin-1-yl)thiazole] | 2e-07 to 1e-06 M
Cc1ccnc(N2CCN(C(C)c3ccc4c(c3)OCO4)CC2)n1 (racemic) [Example 9, 2-(4-(1-(Benzo[d][1,3]dioxol-5-yl)ethyl)piperazin-1-yl)-4-methylpyrimidine] | 2e-07 to 1e-06 M
CC(c1ccc2c(c1)OCO2)N1CCN(c2ccccn2)CC1 (racemic) [Example 10, 1-(1-(Benzo[d][1,3]dioxol-5-yl)ethyl)-4-(pyridin-2-yl)piperazine] | 2e-07 to 1e-06 M
CC(C)c1csc(N2CCN(C(C)c3ccc4c(c3)OCO4)CC2)n1 (racemic) [Example 12, 2-(4-(1-(Benzo[d][1,3]dioxol-5-yl)ethyl)piperazin-1-yl)-4-isopropylthiazole] | 2e-07 to 1e-06 M
CC(c1ccc2c(c1)OCO2)N1CCN(c2nc(C(F)(F)F)cs2)CC1 (racemic) [Example 13, 2-(4-(1-(Benzo[d][1,3]dioxol-5-yl)ethyl)piperazin-1-yl)-4-(trifluoromethyl)thiazole] | 2e-07 to 1e-06 M
Cc1ccc(N2CCN(C(C)c3ccc4c(c3)OCO4)CC2)nc1 (racemic) [Example 14, 1-(1-(Benzo[d][1,3]dioxol-5-yl)ethyl)-4-(5-methylpyridin-2-yl)piperazine] | 2e-07 to 1e-06 M
CC(c1ccc2c(c1)OCO2)N1CCN(c2nc(C(C)(C)C)cs2)CC1 (racemic) [Example 16, 2-(4-(1-(benzo[d][1,3]dioxol-5-yl)ethyl)piperazin-1-yl)-4-(tert-butyl)thiazole] | 1e-06 to 1e-05 M
CCOC(=O)c1csc(N2CCN(C(C)c3ccc4c(c3)OCO4)CC2)n1 (racemic) [Example 17, Ethyl 2-(4-(1-(benzo[d][1,3]dioxol-5-yl)ethyl)piperazin-1-yl)thiazole-4-carboxylate] | 2e-07 to 1e-06 M
CCc1csc(N2CCN(C(C)c3ccc4c(c3)OCO4)CC2)n1 (racemic) [Example 19, 2-(4-(1-(Benzo[d][1,3]dioxol-5-yl)ethyl)piperazin-1-yl)-4-ethylthiazole] | 2e-07 to 1e-06 M
CC(c1ccc2c(c1)OCO2)N1CCN(c2ccc(Cl)cn2)CC1 (racemic) [Example 20] | 2e-07 to 1e-06 M
Cc1cccc(N2CCN(C(C)c3ccc4c(c3)OCO4)CC2)n1 (racemic) [Example 21, 1-(1-(Benzo[d][1,3]dioxol-5-yl)ethyl)-4-(6-methylpyridin-2-yl)piperazine] | 2e-07 to 1e-06 M
CCOC(=O)c1cnc(N2CCN(C(C)c3ccc4c(c3)OCO4)CC2)s1 (racemic) [Example 27, Ethyl 2-(4-(1-(benzo[d][1,3]dioxol-5-yl)ethyl)piperazin-1-yl)thiazole-5-carboxylate] | 2e-07 to 1e-06 M
CC(C)NC(=O)c1csc(N2CCN(C(C)c3ccc4c(c3)OCO4)CC2)n1 (racemic) [Example 32, 2-(4-(1-(Benzo[d][1,3]dioxol-5-yl)ethyl)piperazin-1-yl)-N-isopropylthiazole-4-carboxamide] | 2e-07 to 1e-06 M
CC(c1ccc2c(c1)OCO2)N1CCN(c2nc(C(=O)NC3CCCCC3)cs2)CC1 (racemic) [Example 33, 2-(4-(1-(Benzo[d][1,3]dioxol-5-yl)ethyl)piperazin-1-yl)-N-cyclohexylthiazole-4-carboxamide] | 2e-07 to 1e-06 M
CC(c1ccc2c(c1)OCO2)N1CCN(c2nc(C(=O)N(C)C)cs2)CC1 (racemic) [Example 42, 2-(4-(1-(benzo[d][1,3]dioxol-5-yl)ethyl)piperazin-1-yl)-N,N-dimethylthiazole-4-carboxamide] | 2e-07 to 1e-06 M
CCCNc1ccnc(N2CCN(C(C)c3ccc4c(c3)OCO4)CC2)n1 (racemic) [Example 45, 2-(4-(1-(Benzo[d][1,3]dioxol-5-yl)ethyl)piperazin-1-yl)-N-propylpyrimidin-4-amine] | 2e-07 to 1e-06 M
CC(c1ccc2c(c1)OCCO2)N1CCN(c2nc(C(N)=O)cs2)CC1 (racemic) [Example 49, 2-(4-(1-(2,3-Dihydrobenzo[b][1,4]dioxin-6-yl)ethyl)piperazin-1-yl)thiazole-4-carboxamide] | 2e-07 to 1e-06 M

Second part, the molecule after the results:

IC50 | Structure (SMILES)
2e-07 to 1e-06 M | Cc1csc(C2CCN(C(C)c3ccc4c(c3)OCO4)CC2)n1 (racemic) [Example 1, 2-(1-(1-(Benzo[d][1,3]dioxol-5-yl)ethyl)piperidin-4-yl)-4-methylthiazole]
2e-07 to 1e-06 M | Cc1nnc(C2CCN(C(C)c3ccc4c(c3)OCO4)CC2)o1 (racemic) [Example 2, 2-(1-(1-(benzo[d][1,3]dioxol-5-yl)ethyl)piperidin-4-yl)-5-methyl-1,3,4-oxadiazole]
5e-08 to 2e-07 M | CC(c1ccc2c(c1)OCO2)N1CCN(c2cnc(I)nc2)CC1 (racemic) [Example 8, -5-(4-(1-(benzo[d][1,3]dioxol-5-yl)ethyl)piperazin-1-yl)-2-iodopyrimidine]
5e-08 to 2e-07 M | CC(c1ccc2c(c1)OCO2)N1CCN(c2nc(C(=O)O)cs2)CC1 (racemic) [Example 18, 2-(4-(1-(Benzo[d][1,3]dioxol-5-yl)ethyl)piperazin-1-yl)thiazole-4-carboxylic acid]
5e-08 to 2e-07 M | CC(c1ccc2c(c1)OCO2)N1CCN(c2nccc(N)n2)CC1 (racemic) [Example 22, 2-(4-(1-(Benzo[d][1,3]dioxol-5-yl)ethyl)piperazin-1-yl)pyrimidin-4-amine]
5e-08 to 2e-07 M | CC(=O)Nc1ccnc(N2CCN(C(C)c3ccc4c(c3)OCO4)CC2)n1 (racemic) [Example 23, N-(2-(4-(1-(Benzo[d][1,3]dioxol-5-yl)ethyl)piperazin-1-yl)pyrimidin-4-yl)acetamide]
5e-08 to 2e-07 M | CC(c1ccc2c(c1)OCO2)N1CCN(c2cc(Cl)ncn2)CC1 (racemic) [Example 24, 4-(4-(1-(Benzo[d][1,3]dioxol-5-yl)ethyl)piperazin-1-yl)-6-chloropyrimidine]
5e-08 to 2e-07 M | CC(c1ccc2c(c1)OCO2)N1CCN(c2cnc(Cl)cn2)CC1 (racemic) [Example 25]
5e-08 to 2e-07 M | CC(c1ccc2c(c1)OCO2)N1CCN(c2ncc(CO)s2)CC1 (racemic) [Example 28, (2-(4-(1-(Benzo[d][1,3]dioxol-5-yl)ethyl)piperazin-1-yl)thiazol-5-yl)methanol]
5e-08 to 2e-07 M | CC(c1ccc2c(c1)OCO2)N1CCN(c2nc(CO)cs2)CC1 (racemic) [Example 29, (2-(4-(1-(Benzo[d][1,3]dioxol-5-yl)ethyl)piperazin-1-yl)thiazol-4-yl)methanol]
5e-08 to 2e-07 M | CNC(=O)c1csc(N2CCN(C(C)c3ccc4c(c3)OCO4)CC2)n1 (racemic) [Example 30, 2-(4-(1-(Benzo[d][1,3]dioxol-5-yl)ethyl)piperazin-1-yl)-N-methylthiazole-4-carboxamide]
5e-08 to 2e-07 M | CC(c1ccc2c(c1)OCO2)N1CCN(c2nc(C(N)=O)cs2)CC1 (racemic) [Example 35, 2-(4-(1-(Benzo[d][1,3]dioxol-5-yl)ethyl)piperazin-1-yl)thiazole-4-carboxamide]
5e-08 to 2e-07 M | Cc1cnc(N2CCN(C(C)c3ccc4c(c3)OCO4)CC2)s1 (racemic) [Example 36]
< 5e-08 M | Cc1ncc(N2CCN(C(C)c3ccc4c(c3)OCO4)CC2)s1 (racemic) [Example 37, 5-(4-(1-(Benzo[d][1,3]dioxol-5-yl)ethyl)piperazin-1-yl)-2-methylthiazole]
5e-08 to 2e-07 M | CC(c1ccc2c(c1)OCO2)N1CCN(c2ncc(Cl)cn2)CC1 (racemic) [Example 38]
5e-08 to 2e-07 M | COc1ccnc(N2CCN(C(C)c3ccc4c(c3)OCO4)CC2)n1 (racemic) [Example 39, 2-(4-(1-(Benzo[d][1,3]dioxol-5-yl)ethyl)piperazin-1-yl)-4-methoxypyrimidine]
5e-08 to 2e-07 M | CC(c1ccc2c(c1)OCO2)N1CCN(c2ccnc(Cl)n2)CC1 (racemic) [Example 40, 4-(4-(1-(Benzo[d][1,3]dioxol-5-yl)ethyl)piperazin-1-yl)-2-chloropyrimidine]
5e-08 to 2e-07 M | CC(c1ccc2c(c1)OCO2)N1CCN(c2nnc(N)s2)CC1 (racemic) [Example 41, 5-(4-(1-(benzo[d][1,3]dioxol-5-yl)ethyl)piperazin-1-yl)-1,3,4-thiadiazol-2-amine]
5e-08 to 2e-07 M | CC(C)NC(=O)c1cnc(N2CCN(C(C)c3ccc4c(c3)OCO4)CC2)s1 (racemic) [Example 43, 2-(4-(1-(Benzo[d][1,3]dioxol-5-yl)ethyl)piperazin-1-yl)-N-isopropylthiazole-5-carboxamide]
5e-08 to 2e-07 M | CC(c1ccc2c(c1)OCO2)N1CCN(c2ccnc(N)n2)CC1 (racemic) [Example 46, 4-(4-(1-(Benzo[d][1,3]dioxol-5-yl)ethyl)piperazin-1-yl)pyrimidin-2-amine]
< 5e-08 M | CC(c1ccc2c(c1)OCO2)N1CCN(c2ncc(C(N)=O)s2)CC1 (racemic) [Example 48, 2-(4-(1-(Benzo[d](1,3)dioxol-5-yl)ethyl)piperazin-1-yl)thiazole-5-carboxamide]

Same assay, conditions: measured according to Example B01

Structure (SMILES) | OGA inhibitor activity (in words)
Cc1ncc(N2CCN(C(C)c3ccc4c(c3)OCO4)CC2)s1 (racemic) [Example 37, 5-(4-(1-(Benzo[d][1,3]dioxol-5-yl)ethyl)piperazin-1-yl)-2-methylthiazole] | very potent OGA inhibitors
CC(c1ccc2c(c1)OCO2)N1CCN(c2ncc(C(N)=O)s2)CC1 (racemic) [Example 48, 2-(4-(1-(Benzo[d](1,3)dioxol-5-yl)ethyl)piperazin-1-yl)thiazole-5-carboxamide] | very potent OGA inhibitors
